Numbers after ± are expanded uncertainties.
Settings: for viscosity / mass density: 101 kPa, Liquid; for mass density: Vibrating tube method

Row | SMILES | surface tension liquid-gas (293.15 K) | viscosity (293.15 K) | mass density (293.15 K) | surface tension liquid-gas (298.15 K) | viscosity (298.15 K) | mass density (298.15 K) | surface tension liquid-gas (303.15 K) | viscosity (303.15 K) | mass density (303.15 K) | surface tension liquid-gas (313.15 K) | viscosity (313.15 K) | mass density (313.15 K) | surface tension liquid-gas (323.15 K) | viscosity (323.15 K) | mass density (323.15 K) | surface tension liquid-gas (333.15 K) | viscosity (333.15 K) | mass density (333.15 K)
1 | COP(=O)([O-])OC.Cn1cc[n+](C)c1 [1,3-dimethylimidazolium dimethylphosphate] | 47.78 ± 1.5 mN/m | 381.22 ± 65 mPa·s | 1254 ± 9 kg/m3 | 46.98 ± 1.5 mN/m | 336.74 ± 56 mPa·s | 1250 ± 9 kg/m3 | 46.21 ± 1.4 mN/m | 221.41 ± 34 mPa·s | 1247 ± 9 kg/m3 | 44.89 ± 1.4 mN/m | 178.66 ± 26 mPa·s | 1240 ± 9 kg/m3 | 42.67 ± 1.4 mN/m | 147.95 ± 21 mPa·s | 1233 ± 9 kg/m3 | 41.99 ± 1.3 mN/m | 133.73 ± 19 mPa·s | 1230 ± 8 kg/m3
2 | CCOP(=O)([O-])OCC.CCn1cc[n+](C)c1 [1-ethyl-3-methylimidazolium diethyl phosphate] | 34.78 ± 1.3 mN/m | 537.03 ± 99 mPa·s | 1151 ± 10 kg/m3 | 34.46 ± 1.3 mN/m | 320.89 ± 53 mPa·s | 1146 ± 9 kg/m3 | 34.19 ± 1.2 mN/m | 284.34 ± 46 mPa·s | 1141 ± 9 kg/m3 | 33.54 ± 1.2 mN/m | 150.96 ± 22 mPa·s | 1130 ± 9 kg/m3 | 33.15 ± 1.2 mN/m | 90.02 ± 12 mPa·s | 1116 ± 9 kg/m3 | 32.81 ± 1.2 mN/m | 58.02 ± 7.5 mPa·s | 1103 ± 9 kg/m3
3 | CCCO [propan-1-ol] | 23.67 ± 0.72 mN/m | 2.2 ± 0.28 mPa·s | 804 ± 5 kg/m3 | 23.31 ± 0.72 mN/m | 1.99 ± 0.26 mPa·s | 800.1 ± 5.1 kg/m3 | 22.81 ± 0.7 mN/m | 1.73 ± 0.22 mPa·s | 796 ± 5 kg/m3 | 22.19 ± 0.69 mN/m | 1.38 ± 0.18 mPa·s | 788 ± 5 kg/m3 | 21.34 ± 0.67 mN/m | 1.12 ± 0.15 mPa·s | 780 ± 5 kg/m3 | 20.66 ± 0.65 mN/m | 0.91 ± 0.12 mPa·s | 
4 | CC(C)O [propan-2-ol] | 21.28 ± 0.67 mN/m | 2.41 ± 0.31 mPa·s | 786 ± 5 kg/m3 | 20.94 ± 0.66 mN/m | 2.06 ± 0.27 mPa·s | 781 ± 5 kg/m3 | 20.54 ± 0.65 mN/m | 1.79 ± 0.23 mPa·s | 777 ± 5 kg/m3 | 19.97 ± 0.64 mN/m | 1.35 ± 0.17 mPa·s | 768 ± 5 kg/m3 | 18.87 ± 0.61 mN/m | 1.03 ± 0.13 mPa·s | 759 ± 5 kg/m3 | 18.11 ± 0.59 mN/m | 0.82 ± 0.11 mPa·s | 750 ± 5 kg/m3
